Key:
Format in all cases: cell-based
[1] = MTT cell viability assay, THP-1 cells; settings: human, unstimulated THP-1 cells, read-out: THP-1 Cytotoxicity CC50
Protocol: (§1) In order to assess the cytotoxicity of the compounds, an MTT cell viability assay was performed in either unstimulated THP-1 or HepG2 cells as follows. 5×10^4 THP-1 or 5×10^3 HepG2 cells were seeded into each well of a 96-well plate in 90 μL of media. Compounds were added to cells as described for the IL-10 assay and returned to the incubator for an additional 72 hours. Next, 25 μL of MTT solution (5 mg/mL in sterile PBS) was added to each well. Plates were incubated for 3 hours at 37° C., 5% CO2. Next, for THP-1 cells, 100 μl of MTT solubilization solution (40% Dimethylformamide, 2% glacial acetic acid, 16% sodium dodecyl sulfate) was then added to each well and plates were incubated at room temperature in the dark overnight. For HepG2 cells, media was aspirated, 50 μL of DMSO was added and plates were mixed briefly with an orbital plate shaker. Absorbance at 570 nm was measured using a Perkin-Elmer EnVision plate reader.
Absorbance values were converted to percentage of vehicle-treated controls. Data was then analyzed using a non-linear regression (variable slope (four-parameter)) equation in GraphPad Prism 7.0.
Table 2 provides THP-1 cytotoxicity assay CC50 values for example compounds. A indicates CC50>10 μM; B indicates CC50 between 1 and 10 μM (inclusive); C indicates CC50<1 μM. NT, not tested.

[2] = test system: IL-1β; assay: IL-1β inhibition assay (ELISA/HTRF of culture supernatants); settings: Homo sapiens, PMA-differentiated THP-1 cells, tested 10 μM to 0.003 μM
Protocol: Human monocyte-like THP-1 cells were grown in RPMI media supplemented with 10% FBS (growth media) at 37° C., 5% CO2. Cell cultures were passaged every three days and maintained at a density of 5×10^5 to 1×10^6 cells per mL.
Compounds were prepared as 10 mM stock solutions in 100% DMSO. […] Each 200× dilution was then diluted 20-fold in growth media (step down dilution) to yield a 10× final assay concentration range. All compounds were tested over a final assay concentration range of 10 μM to 0.003 μM.
The level of IL-10 in supernatants from PMA-differentiated THP-1 cells was determined by ELISA using either the R&D Systems Human IL-1 beta/IL-1F2 Quantikine ELISA or the cisbio HTRF human IL 1 beta kit. Manufacturer's protocols were followed without deviation.
Background values were subtracted and resulting values were converted to percentage of vehicle-treated controls. Data was analyzed via GraphPad Prism 7.0 using a non-linear regression (variable slope (four-parameter)) equation.
Table 2 provides IL-10 ELISA EC50 values for example compounds. A indicates EC50>10 μM; B indicates EC50 between 1 and 10 μM (inclusive); C indicates EC50<1 μM.

[3] = MTT cell viability assay, HepG2 cells; settings: human, read-out: HepG2 Cytotoxicity CC50
Protocol: as §1
Absorbance values were converted to percentage of vehicle-treated controls. Data was then analyzed using a non-linear regression (variable slope (four-parameter)) equation in GraphPad Prism 7.0. […]

`CC(C)c1cc(C#N)c(F)c(C(C)C)c1NC(=O)NS(=O)(=O)c1ccc2c(c1)C(C)OB2O` (stereo not shown) [Example 56, N-((4-cyano-3-fluoro-2,6-diisopropylphenyl)carbamoyl)-1-hydroxy-3-methyl-1,3-dihydrobenzo[c][1,2]oxaborole-5-sulfonamide] showed a CC50 at 72 h [1] greater than 10 µM, an EC50 [2] of 1 to 10 µM and a CC50 at 72 h [3] greater than 10 µM.
Compound `CC(CCB1O[C@@H]2C[C@@H]3C[C@@H](C3(C)C)[C@]2(C)O1)n1ccc(S(=O)(=O)NC(=O)Nc2c3c(cc4c2CCC4)CCC3)n1` (stereo partly drawn) [Example 60, N-((1,2,3,5,6,7-hexahydro-s-indacen-4-yl)carbamoyl)-1-(4-((3aS,4S,6S,7aR)-3a,5,5-trimethylhexahydro-4,6-methanobenzo[d][1,3,2]dioxaborol-2-yl)butan-2-yl)-1H-pyrazole-3-sulfonamide] has a CC50 at 72 h [1] greater than 10 µM, an EC50 [2] of 1 to 10 µM and a CC50 at 72 h [3] greater than 10 µM.
With `CC1(C)CCc2c1nc1c(c2NC(=O)NS(=O)(=O)c2ccn(CCCB(O)O)n2)CCC1` [Example 67, (3-(3-(N-((3,3-dimethyl-1,2,3,5,6,7-hexahydrodicyclopenta[b,e]pyridin-8-yl)carbamoyl)sulfamoyl)-1H-pyrazol-1-yl)propyl)boronic acid] the EC50 [2] was less than 1 µM and the CC50 at 72 h [3] was greater than 10 µM.
Compound `O=C(Nc1c2c(cc3c1CCC3)CCC2)NS(=O)(=O)c1ccc2c(c1)C(O)OB2O` (stereo not shown) [Example 54, N-((1,2,3,5,6,7-hexahydro-s-indacen-4-yl)carbamoyl)-1,3-dihydroxy-1,3-dihydrobenzo[c][1,2]oxaborole-5-sulfonamide] has a CC50 at 72 h [1] greater than 10 µM, an EC50 [2] greater than 10 µM and a CC50 at 72 h [3] greater than 10 µM.
With `CC(CB1OC(C)(C)C(C)(C)O1)Cn1ccc(S(=O)(=O)NC(=O)Nc2c3c(cc4c2CCC4)CCC3)n1` (stereo not shown) [Example 64, N-((1,2,3,5,6,7-hexahydro-s-indacen-4-yl)carbamoyl)-1-(2-methyl-3-(4,4,5,5-tetramethyl-1,3,2-dioxaborolan-2-yl)propyl)-1H-pyrazole-3-sulfonamide] the EC50 [2] was less than 1 µM and the CC50 at 72 h [3] was greater than 10 µM.
With `CC(CB(O)O)Cn1ccc(S(=O)(=O)NC(=O)Nc2c3c(cc4c2CCC4)CCC3)n1` (stereo not shown) [Example 65, (3-(3-(N-((1,2,3,5,6,7-hexahydro-s-indacen-4-yl)carbamoyl)sulfamoyl)-1H-pyrazol-1-yl)-2-methylpropyl)boronic acid] the EC50 [2] was less than 1 µM and the CC50 at 72 h [3] was greater than 10 µM.
In the case of `O=C(Nc1c2c(cc3c1CCC3)CCC2)NS(=O)(=O)c1ccn(CCCB(O)O)n1` [Example 63, (3-(3-(N-((1,2,3,5,6,7-hexahydro-s-indacen-4-yl)carbamoyl)sulfamoyl)-1H-pyrazol-1-yl)propyl)boronic acid], the EC50 [2] is reported as less than 1 µM and the CC50 at 72 h [3] is reported as greater than 10 µM.
With `CC(C)c1cc(C#N)c(F)c(C(C)C)c1NC(=O)NS(=O)(=O)c1ccn(CCCB(O)O)n1` [Example 68, (3-(3-(N-((4-cyano-3-fluoro-2,6-diisopropylphenyl)carbamoyl)sulfamoyl)-1H-pyrazol-1-yl)propyl)boronic acid] the EC50 [2] was less than 1 µM and the CC50 at 72 h [3] was greater than 10 µM.
With `O=C(Nc1c2c(cc3c1CCC3)CCC2)NS(=O)(=O)C1CCN(CCCB(O)O)CC1` [Example 72, (3-(4-(N-((1,2,3,5,6,7-hexahydro-s-indacen-4-yl)carbamoyl)sulfamoyl)piperidin-1-yl)propyl)boronic acid] the EC50 [2] was 1 to 10 µM and the CC50 at 72 h [3] was greater than 10 µM.
`CC(CB1OC(C)(C)C(C)(C)O1)c1coc(S(=O)(=O)NC(=O)Nc2c3c(cc4c2CCC4)CCC3)c1` (stereo not shown) [Example 58, N-((1,2,3,5,6,7-hexahydro-s-indacen-4-yl)carbamoyl)-4-(1-(4,4,5,5-tetramethyl-1,3,2-dioxaborolan-2-yl)propan-2-yl)furan-2-sulfonamide] gave an EC50 [2] of less than 1 µM and a CC50 at 72 h [3] greater than 10 µM.
In the case of `COc1cc(-c2ccc3c(c2NC(=O)NS(=O)(=O)c2ccn(CCCB(O)O)n2)CCC3)ccn1` [Example 69, (3-(3-(N-((5-(2-methoxypyridin-4-yl)-2,3-dihydro-1H-inden-4-yl)carbamoyl)sulfamoyl)-1H-pyrazol-1-yl)propyl)boronic acid], the EC50 [2] is reported as less than 1 µM and the CC50 at 72 h [3] is reported as greater than 10 µM.
`COc1cc(-c2ccc3c(c2NC(=O)NS(=O)(=O)c2ccc4c(c2)C(O)OB4O)CCC3)ccn1` (stereo not shown) [Example 53, 1,3-dihydroxy-N-((5-(2-methoxypyridin-4-yl)-2,3-dihydro-1H-inden-4-yl)carbamoyl)-1,3-dihydrobenzo[c][1,2]oxaborole-5-sulfonamide] gave a CC50 at 72 h [1] greater than 10 µM, an EC50 [2] of 1 to 10 µM and a CC50 at 72 h [3] greater than 10 µM.
Work on `CC1(C)OB(CCCC2(S(=O)(=O)NC(=O)Nc3c4c(cc5c3CCC5)CCC4)CC2)OC1(C)C` [Example 70, N-((1,2,3,5,6,7-hexahydro-s-indacen-4-yl)carbamoyl)-1-(3-(4,4,5,5-tetramethyl-1,3,2-dioxaborolan-2-yl)propyl)cyclopropane-1-sulfonamide] yielded an EC50 [2] of 1 to 10 µM and a CC50 at 72 h [3] greater than 10 µM.
Work on `COc1cc(-c2ccc3c(c2NC(=O)NS(=O)(=O)c2ccc4c(c2)C(C)OB4O)CCC3)ccn1` (stereo not shown) [Example 55, 1-hydroxy-N-((5-(2-methoxypyridin-4-yl)-2,3-dihydro-1H-inden-4-yl)carbamoyl)-3-methyl-1,3-dihydrobenzo[c][1,2]oxaborole-5-sulfonamide] yielded a CC50 at 72 h [1] greater than 10 µM, an EC50 [2] of less than 1 µM and a CC50 at 72 h [3] greater than 10 µM.
`CC(C)c1cc(C#N)c(F)c(C(C)C)c1NC(=O)NS(=O)(=O)c1ccc2c(c1)C(O)OB2O` (stereo not shown) [Example 52, N-((4-cyano-3-fluoro-2,6-diisopropylphenyl)carbamoyl)-1,3-dihydroxy-1,3-dihydrobenzo[c][1,2]oxaborole-5-sulfonamide] gave a CC50 at 72 h [1] greater than 10 µM, an EC50 [2] greater than 10 µM and a CC50 at 72 h [3] greater than 10 µM.
`CC(C)(Cn1ccc(S(=O)(=O)NC(=O)Nc2c3c(cc4c2CCC4)CCC3)n1)B1OC(C)(C)C(C)(C)O1` [Example 66, N-((1,2,3,5,6,7-hexahydro-s-indacen-4-yl)carbamoyl)-1-(2-methyl-2-(4,4,5,5-tetramethyl-1,3,2-dioxaborolan-2-yl)propyl)-1H-pyrazole-3-sulfonamide] showed an EC50 [2] of less than 1 µM and a CC50 at 72 h [3] greater than 10 µM.
Work on `CC1(C)OB(CCCN2CC(S(=O)(=O)NC(=O)Nc3c4c(cc5c3CCC5)CCC4)C2)OC1(C)C` [Example 73, N-((1,2,3,5,6,7-hexahydro-s-indacen-4-yl)carbamoyl)-1-(3-(4,4,5,5-tetramethyl-1,3,2-dioxaborolan-2-yl)propyl)azetidine-3-sulfonamide] yielded an EC50 [2] of less than 1 µM and a CC50 at 72 h [3] greater than 10 µM.
In the case of `O=C(Nc1c2c(cc3c1CCC3)CCC2)NS(=O)(=O)C1(CCCB(O)O)CC1` [Example 71, (3-(1-(N-((1,2,3,5,6,7-hexahydro-s-indacen-4-yl)carbamoyl)sulfamoyl)cyclopropyl)propyl)boronic acid], the EC50 [2] is reported as 1 to 10 µM and the CC50 at 72 h [3] is reported as greater than 10 µM.
`COc1ccc(S(=O)(=O)NC(=O)Nc2c3c(cc4c2CCC4)CCC3)cc1CCCB1OC(C)(C)C(C)(C)O1` [Example 45, N-((1,2,3,5,6,7-hexahydro-s-indacen-4-yl)carbamoyl)-4-methoxy-3-(3-(4,4,5,5-tetramethyl-1,3,2-dioxaborolan-2-yl)propyl)benzenesulfonamide] showed a CC50 at 72 h [1] greater than 10 µM and an EC50 [2] of 1 to 10 µM.
With `Cc1c(B2OC(C)(C)C(C)(C)O2)cccc1S(=O)(=O)NC(=O)Nc1c2c(cc3c1CCC3)CCC2` [Example 16, N-((1,2,3,5,6,7-hexahydro-s-indacen-4-yl)carbamoyl)-2-methyl-3-(4,4,5,5-tetramethyl-1,3,2-dioxaborolan-2-yl)benzenesulfonamide] the CC50 at 72 h [1] was greater than 10 µM and the EC50 [2] was 1 to 10 µM.

Reference: US20240018166A1, “SULFONYL UREA NLRP3 INFLAMMASOME INHIBITORS” (Venatorx Pharmaceuticals, Inc., priority 2020, published 2024)
